Source: patent publication US12653914B2, “Compounds for fast and efficient click release” (priority 2019, dated 2026)
Like-named read-outs stand apart in the source and are kept apart here. Where a SMILES comes first, the peptide text is derived from it. [ ]: non-standard residue; d: D form. The star is where a group is joined. Dolaproine = CO[C@@H]([C@@H]1CCCN1)[C@@H](C)C(=O)O; X1 = COC(=O)[C@]1(O)CC/C=C/[C@H](OC(=O)*)CC1; Dil = CC[C@H](C)[C@H](NC)[C@@H](CC(=O)O)OC; X2 = C[C@@H](N*)[C@@H](O)c1ccccc1; NMeV = CN[C@H](C(=O)O)C(C)C

Experiments:
[1] = Second order rate constant, TCO derivatives with tetrazine 2.18, pseudo-first order, UV spectroscopy in MeCN; conditions: reaction with 2.18 in MeCN at 20° C.; estimated from k1′
Protocol: Second order rate constant for the reaction between TCO derivatives and tetrazine 2.18 was determined under pseudo-first order conditions in MeCN at 20° C. by UV spectroscopy. A cuvette was filled with MeCN (3 mL) and equilibrated at 20° C. A solution of 2.18 (20 μL, 25 mM in DMSO) was added, followed by a solution of the TCO (5 μL 25 mM in DMSO). The absorption at 540 nm was monitored. The pseudo-first order reaction constant k1′ was calculated from the half-life of the decrease of this absorption, and the second order rate constant k2 was estimated from k1′ and the initial concentration of tetrazine: k2=k1′/c.

[2] = Release of constructs (C^A) from TCO triggers with tetrazines, HPLC-MS/PDA; conditions: for Time point and release %: MeCN/PBS
Protocol: In another experiment, the release of TCO triggers was evaluated with a range of tetrazines. The constructs to be released included the drug doxorubicin, and methylamine as a model C^A. TCO-C^A conjugates (10 μL, 25 mM in DMSO) were diluted with MeCN ([…]) and PBS ([…]). Next, a solution of the tetrazine activator (20 μL 25 mM in DMSO) was added, and the release was evaluated by HPLC-MS/PDA. The results in Table 6 show complete C^A release in 5 min from all TCO triggers with all tested activators. Importantly, no release was observed from 1.42 and 1.62 upon reaction with 2.18, which supports Formula (19), wherein an amine being Y^T1, Y^T2 or Y^T3 cannot be bound to a carbonyl.

[3] = cited from earlier work
[4] = Release kinetics of 7-amino-4-methylcoumarin (AMC) in various media, fluorescence; conditions: 5 μM 1.14, 7 μM activator 2.18
Protocol: 1.14 was reacted in PBS, DMEM buffer, full cell growth medium (DMEM+10% FBS) or human plasma at a concentration of 5 μM with activator 2.18 (7 μM) in a quartz cuvette while magnetic stirring. The increase of fluorescence due to the release of 7-amino-4-methylcoumarin (AMC) was monitored using a Perkin Elmer LS55 fluorescence spectrometer. […] In contrast, with TCO triggers not of this invention, 2.18 gives low and slow release [Versteegen et al., Angew. Chem. Int. Ed. 2013, 52, 14112-14116, Sarris et al., Chem Eur J 2018, 24, 18075-18081].

[5] = tested on: HT-1080 cells (human fibrosarcoma); experiment: Cell viability, MTT assay; assay type: cell-based; conditions: then 94 h, n=3
Protocol: HT-1080 cells (human fibrosarcoma) were added with serial dilutions of the TCO-MMAE prodrug 1.16 (100 μM-0.32 nM) in growth medium and 10 μL of a stock solution of activator 2.18 (50 μM in PBS) in a 96-well plate (n=3). After a 2 h incubation at 37° C., the medium was refreshed and the cells were incubated for 94 more hours.

[6] = Second order rate constants, TCO with tetrazine activators, stopped-flow spectrophotometry in PBS; conditions: PBS at 37° C., 25 μM tetrazine, 50 μM TCO
Protocol: Second order rate constants for the reaction of tetrazines activators with 1.13 and 1.71 were determined using a SX20 stopped-flow spectrophotometer from Applied Photophysics. Measurements were performed at 37° C. with 25 μM tetrazine and 50 μM TCO in PBS, in triplicates, monitored at 535 nm. Data was analyzed using GraphPad Prism. Second order rate constants were determined from nonlinear fitting of the absorbance vs. time curves to the second order rate equation. […] Importantly, 2.17 and 2.18 are very reactive, but afford low release yields with TCO triggers that are not part of this invention (i.e. 1.71) [Versteegen et al., Angew. Chem. Int. Ed. 2013, 52, 14112-14116].

[7] = Dye (AF594) release efficiency from TCO-C^A conjugates with tetrazine activators, HPLC endpoint; conditions: 25 μM TCO, 50 μM tetrazine, PBS 37° C., 48 h, n = 2, ±1%
Protocol: 1.15 and 1.72 (as control without an Y^T1 group) were reacted at a concentration of 25 μM with various tetrazine activators (50 μM) in PBS (DMSO content <1%) at 37° C. Samples were analyzed by HPLC (UV and fluorescence detection; 10-100% MeCN in water with 2.5 mM NH4OAc, pH 8.4) after 48 h to obtain endpoint data for the overall dye release efficiency (Table 5). […] Importantly, highly reactive tetrazines that normally give low release yields, now give quantitative release. Compare with [Versteegen et al., Angew. Chem. Int. Ed. 2013, 52, 14112-14116, Sarris et al., Chem Eur J 2018, 24, 18075-18081].

[8] = 5 min, tetrazine 2.18, released payload dimethylamine
[9] = 10 min, tetrazine 2.20, released payload doxorubicin

CN(C)C(=O)O[C@@H]1/C=C/CCN(C(=O)OCC[Si](C)(C)C)CC1 (racemic) [Compound 1.62, 2-(Trimethylsilyl)ethyl (S,E)-4-((dimethylcarbamoyl)oxy)-3,4,7,8-tetrahydroazocine-1(2H)-carboxylate]
k2 [1]: 80 M⁻¹ s⁻¹
release upon reaction with 2.18 [2]: no release

CN(C)C(=O)O[C@@H]1/C=C/CCNCC1 (racemic) [Compound 1.63, (S,E)-1,2,3,4,7,8-Hexahydroazocin-4-yl dimethylcarbamate]
Time point and release % [2, 8]: 5 min: 100%

CNC(=O)C[C@@H]1CC[C@H](OC(=O)N(C)C)/C=C/C[C@H]1O (relative stereo) [Compound 1.70, (rel-1S,5R,6S,E)-5-Hydroxy-6-(2-(methylamino)-2-oxoethyl)cyclooct-2-en-1-yl dimethylcarbamate]
Time point and release % [2, 8]: 5 min: 100%

CN(C)C(=O)OC[C@H]1CC[C@H](OC(=O)N(C)C)/C=C/C[C@H]1N (stereo in doubt) [Compound 1.54, (1S,5R,6S,E)-5-Amino-6-(((dimethylcarbamoyl)oxy)methyl)cyclooct-2-en-1-yl dimethylcarbamate]
k2 [1]: 38 M⁻¹ s⁻¹
Time point and release % [2, 8]: 5 min: 50%

c1ccc(-c2nnc(-c3ccccn3)nn2)nc1 [3,6-bis-(2-pyridyl)-1,2,4,5-tetrazine]
click release yield ([3]; PBS/MeCN (3:1)): 7%
click release yield ([3]; serum): 12%

Cc1nnc(C)nn1 [3,6-bis-methyl-1,2,4,5-tetrazine]
maximum release yield ([3]; release typically takes several hours): 80-90%

COC(=O)[C@]1(O)CC/C=C/[C@H](OC(=O)Nc2ccc3c(C)cc(=O)oc3c2)CC1 [Compound 1.14, Methyl(1S,4E,6R)-1-hydroxy-6-{[(4-methyl-2-oxo-2H-chromen-7-yl)carbamoyl]oxy}cyclooct-4-ene-1-carboxylate]
time to reach 100% AMC release ([4]; PBS and medium (neat or containing FBS)): 1 to 3 min
time to complete AMC release ([4]; human plasma): approximately 20 min

CC[C@H](C)[C@@H]([C@@H](CC(=O)N1CCC[C@H]1[C@H](OC)[C@@H](C)C(=O)N[C@H](C)[C@@H](O)c1ccccc1)OC)N(C)C(=O)[C@@H](NC(=O)[C@H](C(C)C)N(C)C(=O)O[C@H]1/C=C/CC[C@@](O)(C(=O)OC)CC1)C(C)C [Compound 1.16, TCO-MMAE] (X1-[NMeV]V[Dil][Dolaproine]-X2)
IC50 ([5]; HT-1080, 1.16 alone (no activator), 2 h incubation): 1300 nM
IC50 ([5]; HT-1080, in the presence of activator 2.18, 2 h incubation): 0.3 nM

COC(=O)[C@]1(O)CC/C=C/[C@H](OC(=O)N(C)c2ccc([C@@H](O)C(=O)O)cc2)CC1 [Compound 1.19, 2-Hydroxy-2-{4-[({[(1R,2E,6S)-6-hydroxy-6-(methoxycarbonyl)cyclooct-2-en-1-yl]oxy}carbonyl)(methyl)amino]phenyl}acetic acid]
k2 [1]: 134 M⁻¹ s⁻¹
Time point and release % ([2]; 5 min, tetrazines 2.1, 2.3, 2.18 (for all tested activators), released payload 2-hydroxy-2-[4-(methylamino)phenyl]acetic acid): 5 min: 100%

COC(=O)[C@H]1CC[C@@H](O)/C=C/C[C@@H]1NC(=O)OCC[Si](C)(C)C [Compound 1.40, Methyl (1S,2S,4E,6R)-6-hydroxy-2-({[2-(trimethylsilyl)ethoxy]carbonyl}amino)cyclooct-4-ene-1-carboxylate]
k2 [1]: 39 M⁻¹ s⁻¹

COC(=O)[C@H]1CC[C@@H](OC(=O)N(C)C)/C=C/C[C@@H]1NC(=O)OCC[Si](C)(C)C [Compound 1.42, Methyl (1S,2S,4E,6R)-6-((dimethylcarbamoyl)oxy)-2-(((2-(trimethylsilyl)ethoxy)carbonyl)amino)cyclooct-4-ene-1-carboxylate]
release upon reaction with 2.18 ([2]; tetrazine 2.18, amine bound to a carbonyl (protected)): no release

COC(=O)[C@H]1CC[C@@H](OC(=O)N(C)C)/C=C/C[C@@H]1N [Compound 1.43, Methyl (1S,2S,4E,6R)-2-amino-6-((dimethylcarbamoyl)oxy)cyclooct-4-ene-1-carboxylate]
k2 [1]: 27 M⁻¹ s⁻¹
Time point and release % ([2]; 5 min, tetrazines 2.1, 2.3, 2.15, 2.17, 2.18 (for all tested activators), released payload dimethylamine): 5 min: 100%

COC(=O)[C@H]1CC[C@@H](OC(=O)N[C@H]2C[C@@H](OC3C[C@](O)(C(=O)CO)Cc4c(O)c5c(c(O)c43)C(=O)c3c(OC)cccc3C5=O)O[C@@H](C)[C@H]2O)/C=C/C[C@@H]1N (some centres unmarked) [Compound 1.45, TCO-doxorubicin]
Time point and release % [2, 9]: 10 min: 100%

C[Si](C)(C)CCOC(=O)N[C@H]1C/C=C/[C@H](O)CC[C@H]1CO [Compound 1.51, 2-(trimethylsilyl)ethyl N-[(1S,3E,5R,8R)-5-hydroxy-8-(hydroxymethyl)cyclooct-3-en-1-yl]carbamate]
k2 [1]: 104 M⁻¹ s⁻¹

C[Si](C)(C)CCOC(=O)N1CC/C=C/C(O)CC1 (centres unmarked) [Compound 1.60, 2-(Trimethylsilyl)ethyl (E)-4-hydroxy-3,4,7,8-tetrahydroazocine-1(2H)-carboxylate]
k2 [1]: 277 M⁻¹ s⁻¹

COc1cccc2c1C(=O)c1c(O)c3c(c(O)c1C2=O)C[C@@](O)(C(=O)CO)C[C@@H]3O[C@@H]1C[C@H](NC(=O)O[C@@H]2/C=C/CCNCC2)[C@H](O)[C@H](C)O1 [Compound 1.65, TCO-doxorubicin]
Time point and release % [2, 9]: 10 min: 100%

O=C(NCCOCCOCCOCCO)O[C@H]1/C=C/CCCCC1 [Compound 1.71, reference compound]
k2 ([6]; activator 2.12): 280 ± 30 M⁻¹ s⁻¹
k2 ([6]; activator 2.17): 10300 ± 1200 M⁻¹ s⁻¹
k2 ([6]; activator 2.18): 9300 ± 500 M⁻¹ s⁻¹
k2 ([6]; activator 2.9): 80 ± 10 M⁻¹ s⁻¹

TCO-PEG2-AF594 [Compound 1.15]
Release (%) of fluorescent dye (AF594) ([7]; activator 2.10): 99%
Release (%) of fluorescent dye (AF594) ([7]; activator 2.11): 99%
Release (%) of fluorescent dye (AF594) ([7]; activator 2.12): 92%
Release (%) of fluorescent dye (AF594) ([7]; activator 2.13): 99%
Release (%) of fluorescent dye (AF594) ([7]; activator 2.14): 99%
Release (%) of fluorescent dye (AF594) ([7]; activator 2.16): 92%
Release (%) of fluorescent dye (AF594) ([7]; activator 2.17): 96%
Release (%) of fluorescent dye (AF594) ([7]; activator 2.18): 99%
Release (%) of fluorescent dye (AF594) ([7]; activator 2.19): 99%
Release (%) of fluorescent dye (AF594) ([7]; activator 2.6): 93%
Release (%) of fluorescent dye (AF594) ([7]; activator 2.9): 98%
